Results on 36 compounds are retold here after patent US9493444B2 (Merck Patent GmbH, priority 2012, dated 2016).

Some results are limits rather than exact numbers.

The subject of the test is Wnt pathway (TCF-dependent transcription in HEK293 luciferase reporter cell line with ER-DSH construct). The experiment in a line: Cellular assay for Wnt pathway activity (luciferase reporter). It counts as cell-based. To be noted: Homo sapiens; Wnt pathway inhibition, HEK293 luciferase reporter cells (ER-DSH, TCF promoter), 24 hours incubation, estrogen-induced. The method in brief: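 Compounds (30 μM down to 1 nM) were incubated 24 h on cells induced for TCF-dependent transcription with estrogen. Luciferase activity was read by luminescence, normalized to untreated vehicle control, and fitted for IC50.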
For orientation: IC50 means the concentration at which inhibition is half-maximal. Low readings indicate greater potency in that assay, high ones weaker potency in that assay. The compound `CC(=O)N(C)CCN(C)c1cncc(Oc2ccc(Cc3ncc(C(F)(F)F)cc3Cl)cc2)n1` [Compound 159, N-[2-({6-[4-(3-Chloro-5-trifluoro-methyl-pyridin-2-ylmethyl)-phenoxy]-pyrazin-2-yl}-methyl-amino)-ethyl]-N-methyl-acetamide] showed an IC50 of 200 to 1000 nM.

Regarding `CCN(CCSc1cncc(Oc2ccc(-c3ccc(C)cn3)cc2)n1)C(C)=O` [Compound 17, N-Ethyl-N-(2-{6-[4-(5-methyl-pyridin-2-yl)-phenoxy]-pyrazin-2-ylsulfanyl}-ethyl)-acetamide], the IC50 was < 200 nM. Then `CC(=O)N(CCSc1cncc(Oc2ccc(-c3ccc(C)cn3)cc2)n1)C(C)C` [Compound 169, N-Isopropyl-N-(2-{6-[4-(5-methyl-pyridin-2-yl)-phenoxy]-pyrazin-2-ylsulfanyl}-ethyl)-acetamide], with < 200 nM; and `CN(CCN(C)c1cncc(Oc2ccc(F)cc2)n1)C(=O)CN(C)C(=O)OC(C)(C)C` [Compound 285, {[(2-{[6-(4-Fluoro-phenoxy)-pyrazin-2-yl]-methyl-amino}-ethyl)-methyl-carbamoyl]-methyl}-methyl-carbamic acid tert-butyl ester], with 1000 to 10000 nM. The same measure for `COc1ccc(Oc2cncc(N(C)CCN(C)C(=O)C(F)(F)F)n2)cc1` [Compound 79, 2,2,2-Trifluoro-N-(2-{[6-(4-methoxy-phenoxy)-pyrazin-2-yl]-methyl-amino}-ethyl)-N-methyl-acetamide]: 1000 to 10000 nM; for `CC(=O)Nc1cccc(-c2ccc(Oc3cncc(CCCN(C)C(C)=O)n3)cc2)n1` [Compound 218, N-(3-{6-[4-(6-Acetylamino-pyridin-2-yl)-phenoxy]-pyrazin-2-yl}-propyl)-N-methyl-acetamide]: 200 to 1000 nM. In turn, `COc1ccc(Oc2cncc(N3CCCC(CNC(C)=O)C3)n2)cc1` (stereo not drawn) [Compound 49, N-{1-[6-(4-Methoxy-phenoxy)-pyrazin-2-yl]-piperidin-3-ylmethyl}-acetamide] had an IC50 of 1000 to 10000 nM. Regarding `CC(=O)N(C)CCN(C)c1cncc(Oc2ccc(-c3cncnc3)cc2)n1` [Compound 209, N-Methyl-N-(2-{methyl-[6-(4-pyrimidin-5-yl-phenoxy)-pyrazin-2-yl]-amino}-ethyl)-acetamide], the IC50 is < 200 nM. The same measure for `CC(=O)N(C)CCCc1cncc(Oc2ccc(-c3ccncc3C#N)cc2F)n1` [Compound 266, N-(3-{6-[4-(3-Cyano-pyridin-4-yl)-2-fluoro-phenoxy]-pyrazin-2-yl}-propyl)-N-methyl-acetamide]: < 200 nM; for `CC(=O)N(C)CCN(C)c1cncc(Oc2ccc(Br)cc2)n1` [Compound 37, N-(2-{[6-(4-Bromo-phenoxy)-pyrazin-2-yl]-methyl-amino}-ethyl)-N-methyl-acetamide]: < 200 nM; for `COc1ccc(Oc2cncc(N(C)CCCN(C)C(=O)C(F)(F)F)n2)cc1` [Compound 81, 2,2,2-Trifluoro-N-(3-{[6-(4-methoxy-phenoxy)-pyrazin-2-yl]-methyl-amino}-propyl)-N-methyl-acetamide]: 1000 to 10000 nM. Then `CC(=O)N(C)CCN(C)c1cncc(Oc2cccc(C)c2)n1` [Compound 44, N-Methyl-N-{2-[methyl-(6-m-tolyloxy-pyrazin-2-yl)-amino]-ethyl}-acetamide], with 1000 to 10000 nM; and `CC(=O)N(C)CCN(C)c1cncc(Oc2ccc(S(N)(=O)=O)cc2)n1` [Compound 101, N-Methyl-N-(2-[methyl-[6-(4-sulfamoyl-phenoxy)-pyrazin-2-yl]-amino}-ethyl)-acetamide], with 200 to 1000 nM. The same measure for `CC(=O)Nc1ccc(-c2ccc(Oc3cncc(NCCN(C)C(C)=O)n3)c(F)c2)cn1` [Compound 258, N-[5-(4-{6-[2-(Acetyl-methyl-amino)-ethylamino]-pyrazin-2-yloxy}-3-fluoro-phenyl)-pyridin-2-yl]-acetamide]: 200 to 1000 nM; for `COc1ccc(Oc2cncc(N(C)CCN(C)C(=O)CCC(C)C)n2)cc1` [Compound 64, 4-Methyl-pentanoic acid (2-{[6-(4-methoxy-phenoxy)-pyrazin-2-yl]-methyl-amino}-ethyl)-methyl-amide]: 1000 to 10000 nM; for `CC(=O)N(C)CCCc1cncc(Oc2ccc(-c3ccc(C)cn3)cc2)n1` [Compound 215, N-Methyl-N-(3-{6-[4-(5-methyl-pyridin-2-yl)-phenoxy]-pyrazin-2-yl}-propyl)-acetamide]: 200 to 1000 nM.

As for `CC(=O)N(C)CCN(C)c1cncc(Oc2ccc(-c3cc4cc[nH]c4cn3)cc2)n1` [Compound 190, N-Methyl-N-[2-(methyl-{6-[4-(1H-pyrrolo[2,3-c]pyridin-5-yl)-phenoxy]-pyrazin-2-yl}-amino)-ethyl]-acetamide], the IC50 is < 200 nM. Then `CC(=O)N(C)CCN(C)c1cncc(Oc2ccc(C)cc2)n1` [Compound 52, N-Methyl-N-{2-[methyl-(6-p-tolyloxy-pyrazin-2-yl)-amino]-ethyl}-acetamide], with < 200 nM.

In the case of `CC(=O)N(C)CCN(C)c1cncc(Oc2ccc(-c3ccc(CCN)cc3)cc2)n1` [Compound 251, N-[2-({6-[4′-(2-Amino-ethyl)-biphenyl-4-yloxy]-pyrazin-2-yl}-methyl-amino)-ethyl]-N-methyl-acetamide], the IC50 is < 200 nM. The same measure for `NC(=O)CCNc1cncc(Oc2ccc(-c3ccc(CO)nc3)cc2)n1` [Compound 299, 3-{6-[4-(6-Hydroxy-methyl-pyridin-3-yl)-phenoxy]-pyrazin-2-ylamino}-propionamide]: 1000 to 10000 nM; for `CC(=O)N(C)CCNc1cncc(Oc2ccc(F)cc2)c1` [Compound 315, N-{2-[5-(4-Fluoro-phenoxy)-pyridin-3-ylamino]-ethyl}-N-methyl-acetamide]: ≥ 10000 nM; for `CC(=O)N(C)CCN(C)c1cncc(Oc2ccc(-c3c(F)c(F)nc(F)c3F)cc2)n1` [Compound 236, N-Methyl-N-[2-(methyl-{6-[4-(2,3,5,6-tetrafluoro-pyridin-4-yl)-phenoxy]-pyrazin-2-yl}-amino)-ethyl]-acetamide]: < 200 nM. The same measure for `CC(=O)N(C)CCN(C)c1cncc(Oc2ccc(-c3ncccc3N3CCOCC3)cc2)n1` [Compound 164, N-Methyl-N-[2-(methyl-{6-[4-(3-morpholin-4-yl-pyridin-2-yl)-phenoxy]-pyrazin-2-yl}-amino)-ethyl]-acetamide]: 1000 to 10000 nM; for `CC(=O)N(C)CCN(C)c1cncc(Oc2ccc(C3CCC(=O)CC3)cc2)n1` [Compound 178, N-Methyl-N-[2-(methyl-{6-[4-(4-oxo-cyclohexyl)-phenoxy]-pyrazin-2-yl}-amino)-ethyl]-acetamide]: < 200 nM; for `CC(=O)N(C)CCN(C)c1cncc(Oc2ccc(-c3cccc(S(C)(=O)=O)n3)cc2)n1` [Compound 206, N-[2-({6-[4-(6-Methane-sulfonyl-pyridin-2-yl)-phenoxy]-pyrazin-2-yl}-methyl-amino)-ethyl]-N-methyl-acetamide]: < 200 nM. Then `CC(=O)N(C)CCN(C)c1cncc(Oc2ccc(C)nc2)n1` [Compound 246, N-Methyl-N-(2-{methyl-[6-(6-methyl-pyridin-3-yloxy)-pyrazin-2-yl]-amino}-ethyl)-acetamide], with 1000 to 10000 nM; and `CC(=O)Nc1cccc(-c2ccc(Oc3cncc(N(C)CCN(C)C(C)=O)n3)cc2)n1` [Compound 171, N-[2-({6-[4-(6-Acetylamino-pyridin-2-yl)-phenoxy]-pyrazin-2-yl}-methyl-amino)-ethyl]-N-methyl-acetamide], with < 200 nM. For the compound `CC(=O)N(C)CCN(C)c1cncc(Oc2ccc(-c3ccncc3C#N)cc2F)n1` [Compound 228, N-[2-({6-[4-(3-Cyano-pyridin-4-yl)-2-fluoro-phenoxy]-pyrazin-2-yl}-methyl-amino)-ethyl]-N-methyl-acetamide], the IC50 was < 200 nM. Then `CC(=O)N(C)CCN(C)c1cncc(Oc2ccc(-c3cc(C#N)ccn3)cc2)n1` [Compound 199, N-[2-({6-[4-(4-Cyano-pyridin-2-yl)-phenoxy]-pyrazin-2-yl}-methyl-amino)-ethyl]-N-methyl-acetamide], with < 200 nM; and `CC(=O)N(C)CCN(C)c1cncc(Oc2ccc(-n3ccnc3)cc2)n1` [Compound 118], with < 200 nM; and `COc1cc(-c2ccc(Oc3cncc(N(C)CCN(C)C(C)=O)n3)cc2)ccn1` [Compound 194, N-[2-({6-[4-(2-Methoxy-pyridin-4-yl)-phenoxy]-pyrazin-2-yl}-methyl-amino)-ethyl]-N-methyl-acetamide], with 200 to 1000 nM. Then `O=C1CCCCN1CCNc1cncc(Oc2ccc(-c3ccc(N4CCOCC4)nc3)cc2)n1` [Compound 295, 1-(2-{6-[4-(6-Morpholin-4-yl-pyridin-3-yl)-phenoxy]-pyrazin-2-ylamino}-ethyl)-piperidin-2-one], with < 200 nM. The same measure for `CC(=O)N(C)CCCc1cnc(N)c(Oc2ccc(F)cc2)c1` [Compound 306, N-{3-[6-Amino-5-(4-fluoro-phenoxy)-pyridin-3-yl]-propyl}-N-methyl-acetamide]: 1000 to 10000 nM.

Compound `CC(=O)N(C)CCN(C)c1cncc(Oc2ccc(O)cc2)n1` [Compound 56, N-(2-{[6-(4-Hydroxy-phenoxy)-pyrazin-2-yl]-methyl-amino}-ethyl)-N-methyl-acetamide] had an IC50 of 200 to 1000 nM.

On to `CC(=O)N(C)CCN(C)c1cncc(Oc2ccc(-c3ccc(F)cn3)cc2F)n1` [Compound 226, N-[2-({6-[2-Fluoro-4-(5-fluoro-pyridin-2-yl)-phenoxy]-pyrazin-2-yl}-methyl-amino)-ethyl]-N-methyl-acetamide], for which the IC50 was < 200 nM. Then `COc1ccc(Oc2cncc(N3CCCC(CNC(=O)OC(C)(C)C)C3)n2)cc1` (stereo not drawn) [Compound 40, {1-[6-(4-Methoxy-phenoxy)-pyrazin-2-yl]-piperidin-3-ylmethyl}-carbamic acid tert-butyl ester], with 1000 to 10000 nM.
